Assay results: PMC8474116, “Discovery of Novel Acetamide-Based Heme Oxygenase-1 Inhibitors with Potent In Vitro Antiproliferative Activity” (Journal of Medicinal Chemistry, 2021)

Experiments:
HO-1 [1] = molecular target: T1, HO-1 (Rattus norvegicus, UniProt P06762); experiment: HO-1 enzymatic activity, rat spleen microsomal fraction (bilirubin formation); format: biochemical; settings: for IC50 / HO-1 inhibitory activity (in words): rat spleen microsomal fraction; for IC50: mean of triplicate ± SD; for SI (HO-2/HO-1): ratio of HO-2 and HO-1 IC50
T1 construct: selected to use the most native (i.e., closest to in vivo) forms of HO-1 and HO-2; from tissue; host or cells: rat spleen (male Sprague-Dawley), microsomal fraction
T1 sequence (P06762 1-289): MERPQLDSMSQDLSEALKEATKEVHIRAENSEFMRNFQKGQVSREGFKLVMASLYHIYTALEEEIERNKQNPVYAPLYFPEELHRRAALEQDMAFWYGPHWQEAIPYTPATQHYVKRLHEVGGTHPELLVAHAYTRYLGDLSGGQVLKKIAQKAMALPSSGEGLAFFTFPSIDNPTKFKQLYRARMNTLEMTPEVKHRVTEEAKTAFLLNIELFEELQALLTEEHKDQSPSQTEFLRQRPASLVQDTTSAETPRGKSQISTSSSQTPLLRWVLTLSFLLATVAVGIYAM
Protocol: (§1) HO-1 and HO-2 were obtained, respectively, from the rat spleen and brain as the microsomal fraction prepared by differential centrifugation; the dominance of HO-1 protein in the rat spleen and HO-2 in the rat brain has been well documented.[24] These particular microsomal preparations were selected to use the most native (i.e., closest to in vivo) forms of HO-1 and HO-2. Spleen and brain (Sprague-Dawley rats) microsomal fractions were prepared according to the procedure outlined by Ryter et al.[2] The experiments reported in the present paper complied with the current Italian law and met the guidelines of the Institutional Animal Care and Use Committee of the Ministry of Health (Directorate General for Animal Health and Veterinary Medicines, Italy) “Dosing of enzymatic activities in rat microsomes” (2018–2022), project code 02769.N.VLY. The experiments were performed in male Sprague-Dawley albino rats (150 g body weight and age 45 d). They had free access to water and were kept at room temperature with a natural photoperiod (12 h light–12 h dark cycle). For measuring HO-1 and HO-2 activities, each rat was sacrificed and their spleen and brain were excised and weighed. A homogenate (15%, w/v) of spleens and brains pooled from four rats was prepared in ice-cold HO-homogenizing buffer (50 mM Tris buffer, pH 7.4, containing 0.25 M sucrose) using a Potter–Elvehjem homogenizing system with a Teflon pestle. The microsomal fraction of rat spleen and brain homogenate was obtained by centrifugation at 10 000g for 20 min at 4 °C, followed by centrifugation of the supernatant at 100 000g for 60 min at 4 °C. The 100 000g pellet (microsomes) was resuspended in 100 mM of potassium phosphate buffer, pH 7.8, containing 2 mM MgCl2 with a Potter–Elvehjem homogenizing system. The rat spleen and brain microsomal fractions were divided into equal aliquots, placed into microcentrifuge tubes, and stored at −80 °C for up to 2 months.
(§2) Liver cytosol has been used as a source of biliverdin reductase. Rat liver was perfused through the hepatic portal vein with cold 0.9% NaCl; then, it was cut and flushed with 2 × 20 mL of ice-cold PBS to remove all of the blood. Liver tissue was homogenized in 3 volumes of a solution containing 1.15% KCl w/v and Tris buffer 20 mM, pH 7.8 on ice. Homogenates were centrifuged at 10 000g for 20 min at 4 °C. The supernatant was decanted and centrifuged at 100 000g for 1 h at 4 °C to sediment the microsomes. The 100 000g supernatant was saved and then stored in small amounts at −80 °C after its protein concentration was measured.
(§3) The HO-1 and HO-2 activities were determined by measuring the bilirubin formation using the difference in absorbance at 464–530 nm, as described by Ryter et al.[2] Reaction mixtures (500 μL) consisted of 20 mM of Tris–HCl, pH 7.4, (1 mg/mL) microsomal extract, 0.5–2 mg/mL of biliverdin reductase, 1 mM of NADPH, 2 mM of glucose 6-phosphate (G6P), 1 U of G6P dehydrogenase, 25 μM of hemin, and 10 μL of DMSO (or the same volume of DMSO solution of test compounds to a final concentration of 100, 10, and 1 μM). Incubations were carried out for 60 min at 37 °C in a circulating water bath in the dark. Reactions were stopped by adding the same volume of chloroform. After recovering the chloroform phase, the amount of bilirubin formed was measured with a double-beam spectrophotometer as OD464–530 nm (extinction coefficient, 40 mM/cm^–1 for bilirubin). One unit of the enzyme was defined as the amount of enzyme catalyzing the formation of 1 nmol of bilirubin/mg protein/h.

HO-2 = molecular target: T2, HO-2 (Rattus norvegicus, UniProt P23711); experiment: HO-2 enzymatic activity, rat brain microsomal fraction (bilirubin formation); format: biochemical; settings: mean of triplicate ± SD
T2 construct: selected to use the most native (i.e., closest to in vivo) forms of HO-1 and HO-2; from tissue; host or cells: rat brain (male Sprague-Dawley), microsomal fraction
T2 sequence (P23711 1-315): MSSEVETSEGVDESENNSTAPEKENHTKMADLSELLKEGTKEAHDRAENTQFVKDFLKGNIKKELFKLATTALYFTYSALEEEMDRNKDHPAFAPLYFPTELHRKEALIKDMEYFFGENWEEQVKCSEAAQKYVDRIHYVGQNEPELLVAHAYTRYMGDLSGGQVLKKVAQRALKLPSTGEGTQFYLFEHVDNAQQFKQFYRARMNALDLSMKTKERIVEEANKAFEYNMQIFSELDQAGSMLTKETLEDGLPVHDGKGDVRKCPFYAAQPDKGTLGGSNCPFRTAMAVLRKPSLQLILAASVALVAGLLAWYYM
Protocol: as §1, §2, §3

U87MG cells = experiment: MTT cell viability assay, U87MG; format: cell-based, human; settings: 48 h, at both concentrations 1 and 10 μM
Protocol: (§4) Experiments were performed on human GBM cell lines U87MG (ATCCC number #HTB-14) and A172 (ATCCC #CRL-1620) on DU145 (ATCC HTB-81) and human lung adenocarcinoma A549 (ATCC CCL-185-LUC2). All cell lines were obtained from the American Type Culture Collection (ATCC, Rockville, MD). Cells were grown in Dulbecco’s modified Eagle’s medium (DMEM) supplemented with 10% of heat-inactivated fetal bovine serum (FBS), 100 U/mL of penicillin, and 100 μg/mL of streptomycin (Sigma-Aldrich, Steinheim, Germany). Cells were incubated at 37 °C in a humidified atmosphere with 5% CO2.
(§5) The effect of selected compounds 7i and 7l–p on cell viability was assessed by performing an MTT assay. Cells were seeded into 96-well plates at a density of 7 × 10^3 cells/well in 100 μL of culture medium. After 24 h, cells were treated with selected compounds at three different concentrations (1 μM, 10 μM, and 50 μM) for 48 h. Following treatments, 0.5 mg/mL of 3-[4,5-dimethylthiazol-2-yl]-2,5-diphenyltetrazolium bromide (MTT) (Sigma-Aldrich) was added to each well and incubated for 4 h at 37 °C. Finally, dimethyl-sulfoxide (DMSO) was used to dissolve formazan salts, and absorbance was measured at 570 nm in a microplate reader (Biotek Synergy-HT). Eight replicate wells were used for each group.

A172 cells = experiment: MTT cell viability assay, A172; format: cell-based, human; settings: 48 h
Protocol: as §4, §5

HO-1 [2] = experiment: HO-1 protein expression by Western blot, A172; format: cell-based, human; settings: A172, 10 μM, 48 h
Protocol: Proteins were extracted from total cell lysate, as previously described.[61] Briefly, cell lines were added to a buffer containing 20 mM Tris (pH 7.4), 2 mM EDTA, 0.5 mM EGTA, 50 mM mercaptoethanol, and […] sucrose supplemented with phosphatase and protease inhibitor cocktails (Roche Diagnostics, Monza, Italy). Subsequently, protein samples were sonicated twice for 20′ by using an ultrasonic probe, followed by centrifugation at 10 000g for 10 min at 4 °C. Sample proteins (30 μg) were diluted in 4X NuPage LDS sample buffer (Invitrogen, NP0007), heated at 80 °C for 5 min, and then separated on a Biorad Criterion XT 4–15% Bis–Tris gel (BIO-RAD) by electrophoresis and then transferred to a PVDF membrane (BIO-RAD). Blots were blocked using the Odyssey Blocking Buffer (LI-COR Biosciences) and probed with appropriate antibodies: HO-1 antibody (GeneTex GTX101147), goat polyclonal anti-VEGF (cat. no. sc-1836, Santa Cruz Biotechnology), and rabbit polyclonal anti-β-tubulin (cat n.sc-9104, Santa Cruz Biotechnology) and β-actin antibody (GeneTex GTX109639).
The secondary antibodies goat antirabbit (Odyssey, #926-32211; Odyssey #926-68021) and donkey antigoat IRDye 800CW (cat #926-32214; Li-Cor Biosciences) were used at 1:7000. Blots were scanned, and densitometric analysis was performed with the Odyssey Infrared Imaging System. Values were normalized to β-actin and to β-tubulin.

A549 cells = experiment: MTT cell viability assay, A549; format: cell-based, human; settings: 48 h, 10 μM
Protocol: as §4, §5

DU145 cells = experiment: MTT cell viability assay, DU145; format: cell-based; settings: 48 h, 1 μM and 10 μM
Protocol: as §4, §5

SMILES | IC50 (HO-1 [1]) | melting point | also measured
O=C(Cn1ccnc1)Nc1ccccc1 [7a] | 110 ± 3.1 µM |  | 
O=C(Cn1ccnc1)Nc1ccc(I)cc1 [7d, 2-(1H-Imidazol-1-yl)-N-(4-iodophenyl)acetamide] | 8.34 ± 0.21 µM | 222 to 225 °C | 
CN(C(=O)Cn1ccnc1)c1ccc(I)cc1 [7e, 2-(1H-Imidazol-1-yl)-N-(4-iodophenyl)-N-methylacetamide] | 96.1 ± 1.44 µM |  | 
O=C(Cn1ccnc1)NCc1ccccc1 [7f] | 57.6 ± 2.38 µM |  | fold decrease in potency with respect to 4 (HO-1) (HO-1 [1]): 2 fold
CC(=O)N(CCCn1ccnc1)Cc1ccccc1 [11a, N-(3-(1H-Imidazol-1-yl)propyl)-N-benzylacetamide] | 224 ± 8.1 µM |  | HO-1 inhibitory activity (in words) (HO-1 [1]): almost inactive
O=C(c1ccccc1)N(CCCn1ccnc1)Cc1ccccc1 [11b, N-(3-(1H-Imidazol-1-yl)propyl)-N-benzylbenzamide] | 31 ± 1.74 µM |  | HO-1 inhibitory activity (in words) (HO-1 [1]): comparable to the hit compound 4
O=C(Cc1ccccc1)N(CCCn1ccnc1)Cc1ccccc1 [11c, N-(3-(1H-Imidazol-1-yl)propyl)-N-benzyl-2-phenylacetamide] | 32 ± 1.48 µM |  | HO-1 inhibitory activity (in words) (HO-1 [1]): comparable to the hit compound 4

More lines, main results first:

IC50 (HO-1 [1]) | melting point | SMILES | also measured
 | 117 to 119 °C | CN(C(=O)Cn1ccnc1)c1ccccc1 [7b, 2-(1H-Imidazol-1-yl)-N-methyl-N-phenylacetamide] | 
35.7 ± 1.2 µM | 158 to 162 °C | O=C(Cn1ccnc1)Nc1cccc(Br)c1 [7c, N-(3-Bromophenyl)-2-(1H-imidazol-1-yl)acetamide] | 
50.6 ± 1.84 µM | 106 to 111 °C | CN(Cc1ccccc1)C(=O)Cn1ccnc1 [7g, N-Benzyl-2-(1H-imidazol-1-yl)-N-methylacetamide] | 
64.8 ± 1.56 µM | 99 to 102 °C | O=C(Cn1ccnc1)N(Cc1ccccc1)Cc1ccccc1 [7h, N,N-Dibenzyl-2-(1H-imidazol-1-yl)acetamide] | 
11.4 ± 0.97 µM | 134 to 136 °C | CN(C(=O)Cn1ccnc1)C(c1ccccc1)C1CCCC1 (stereo not drawn) [7j, N-(Cyclopentyl(phenyl)methyl)-2-(1H-imidazol-1-yl)-N-methylacetamide] | fold less potent than compound 7i (HO-1) (HO-1 [1]): 13 fold
26.8 ± 1.61 µM | 130 to 133 °C | CN(C(=O)Cn1ccnc1)C(c1ccccc1)C1CCCCC1 (stereo not drawn) [7k, N-(Cyclohexyl(phenyl)methyl)-2-(1H-imidazol-1-yl)-N-methylacetamide] | fold less potent than compound 7i (HO-1) (HO-1 [1]): 30 fold
0.9 ± 0.03 µM | 82 to 83 °C | CN(C(=O)Cn1ccnc1)C(c1ccccc1)c1cccc(Br)c1 (stereo not drawn) [7m, N-((3-Bromophenyl)(phenyl)methyl)-2-(1H-imidazol-1-yl)-N-methylacetamide] | HO-1 vs HO-2 selectivity (in words) (HO-1 [1]): superimposable HO-1 and HO-2 IC50 values; SI (HO-2/HO-1) (HO-1 [1]): 1.2; IC50 (HO-2): 1.1 ± 0.04 µM; cell viability reduction (U87MG cells): more than 30%; cell viability reduction (in words) (A172 cells; all tested concentrations (1, 10, 50 μM)): weak activity; HO-1 protein expression (in words) (HO-1 [2]): enhanced its levels
8 ± 0.39 µM | 120 to 121 °C | CN(C(=O)Cn1ccnc1)C(c1ccccc1)c1ccc(OCc2ccc(Br)cc2)cc1 (stereo not drawn) [7p, N-((4-((4-Bromobenzyl)oxy)phenyl)(phenyl)methyl)-2-(1H-imidazol-1-yl)-N-methylacetamide] | fold less potent than 7o (HO-1) (HO-1 [1]): about 6.5 fold; fold less potent than compound 7i (HO-1) (HO-1 [1]): ~9 fold; fold more selective for the inducible isoform (HO-1 over HO-2) (HO-1 [1]): 3 fold; SI (HO-2/HO-1) (HO-1 [1]): 3.1; IC50 (HO-2): 24.71 ± 0.14 µM; cell viability reduction (U87MG cells): around 20%; cell viability reduction (in words) (A172 cells; 10 μM): milder activity; cell viability reduction (in words) (A172 cells; 50 μM): only at 50 μM; cell viability reduction (in words) (A549 cells): weak effect; cell viability reduction (in words) (DU145 cells): had efficacies
